In patent publication US20060269605A1, “Multilayer pharmaceutical dosage form containing a substance that acts in a modulatory manner with regard to the release of active substances” (Roehm Gmbh & Co. KG, priority 2003, published 2006):

assay: active ingredient delivery in PhEur phosphate buffer of pH 6.8 in a USP dissolution tester; type: physicochemical; conditions: modulator as core of theophylline pellets coated with EUDRAGIT RS, no inner controlling layer, versus microcrystalline cellulose core (Example 5)

effect of the substance having a modulating effect on active ingredient delivery | SMILES
accelerating effect | O=C(O)CC(O)(CC(=O)O)C(=O)O [citric acid]
accelerating effect | CC(=O)[O-].[Na+] [sodium acetate]
accelerating effect | O=C([O-])CCC(=O)[O-].[Na+].[Na+] [sodium succinate]

SMILES | effect of the substance having a modulating effect on active ingredient delivery
[Cl-].[Na+] [sodium chloride] | reducing effect
